# In patent publication US8017725B2, “Use of heparin-binding domain of fibronectin for diagnosis and treatment of cancer” (Novartis Forschungesstiftung Zweigniederlassung Friedrich …, priority 2001, dated 2011):
# Columns and labels:
# CHO-K1 cells [1] = test: DNA replication assay (3H-thymidine incorporation); type: cell-based, Chinese hamster; details: CHO-K1, ITS
# Description: (§1) 96-well plates (Falcon) were coated as described above. Cells were serum starved overnight and trypsinised as described. 10^4 cells were transferred onto the coated plates in the presence of the indicated mitogens. 14 h later cells were labelled with radioactive ^3H-thymidine (0.5 μCi/well) for 4 h at 37° C., incorporated ^3H-thymidine was precipitated with 10% TCA and determined with a Beckman scintillation counter after cell lysis in 0.3N NaOH, 2% SDS. For long-term cell proliferation assays 2×10^3 MDA-MB435 cells were plated into ECM-coated 96-well plates in the presence of 10 ng/ml insulin and incubated for the indicated time points in a humidified chamber at 37° C. in a CO^2-incubator. 50% fresh medium with growth factor was added every 24 h. At different time points cells were trypsinised and counted.
# (§2) DNA replication was determined by ^3H-thymidine incorporation and is described as relative increase in cpm over cells plated on fibronectin. Serum starved cells were triggered to enter S-phase by 40 ng/ml PDGF-BB (a), 100 ng/ml insulin (b) and ITS (c).
# CHO-B2α27 cells [2] = test: DNA replication assay (3H-thymidine incorporation); type: cell-based, Chinese hamster; details: CHO-B2α27, ITS
# Description: as §1, §2
# CHO-B2 cells [3] = test: DNA replication assay (3H-thymidine incorporation); type: cell-based, Chinese hamster; details: CHO-B2, ITS
# Description: as §1, §2
# all cell lines tested = test: DNA replication assay, all cell lines tested; type: cell-based
# Description: as §1
# In order to address whether tenascin-C alone and in ECM contexts other than fibronectin might also enhance proliferation, an investigation was carried out into DNA synthesis on a pure tenascin-C substratum where cells remained rounded and, on mixed substrata of collagen I and laminin 1 that contained tenascin-C where cells spread normally. […] To rule out that tenascin-C may shorten S-phase of the cell cycle in tumour cells, DNA synthesis of T98G cells was determined by assay every two hours starting 11 h after plating. […]
# T98G glioblastoma cells [4] = test: Adhesion assay (attachment and spreading on coated ECM substrata); type: cell-based, human
# Description: (§3) 60-well microtiter plates (Nunc) were coated with 10 μg/ml ECM molecules giving rise to 1 μg/cm^2 (fibronectin and tenascin-C) and 4 μg/cm^2 (FNIII13) for 1 h at 37° C. ECM proteins were coated separately, starting with fibronectin, followed by tenascin-C, FNIII13 and BSA. The non-coated plastic surface was blocked with 1% heat-inactivated BSA in PBS giving rise to 10 μg/cm^2 protein. Similarly, mixed substrata of collagen I and laminin 1, respectively with tenascin-C were prepared and tenascin-C was detected by ELISA.
# (§4) Efficient fibronectin and tenascin-C coating was determined by ELISA with an anti-fibronectin and anti-tenascin-C antibody (Fischer, D. et al (1995) J Biol Chem 270: 3378-3384), respectively and by PAGE analysis of lysed surface-bound ECM material combined with Coomassie Brilliant Blue staining. Before plating, cells were serum starved for 18 h in DMEM containing 1×ITS (insulin, transferrin, selene) supplement, trypsinised, trypsin was blocked with 100 μg/ml soybean trypsin inhibitor in PBS and, cells were resuspended in serum-free medium and counted. 200-500 cells per well were plated for the indicated time points, fixed by addition of glutaraldehyde (2% final concentration) for 15 minutes and stained with 0.1% crystalviolet in 20% methanol for 30 minutes. Cells were observed under a Nikon microscope (Nikon diaphot) and pictures were taken with a Nikon camera.
# [5] = test system: MDA-MB435 breast carcinoma cells; test: DNA replication assay (3H-thymidine incorporation); type: cell-based, human; details: MDA MB 435, 100 ng/ml insulin
# Description: as §1
# (§5) Cell proliferation and DNA synthesis of MDA-MB435 breast carcinoma, T98G glioblastoma, and Chinese hamster ovary […] cells (CHO) grown on fibronectin, tenascin-C and on mixed fibronectin/tenascin-C substrata was determined. […] After 27 h, 51 h, and 75 h cells were counted. 24% and 33% more cells were counted on fibronectin/tenascin-C than on fibronectin after 51 h and 75 h of culturing, respectively. […]
# (§6) DNA replication was determined by ^3H-thymidine incorporation and is described as relative increase in cpm over cells plated on fibronectin. […]
# T98G glioblastoma cells [6] = test: DNA replication assay (3H-thymidine incorporation); type: cell-based, human; details: 40 ng/ml PDGF-BB
# Description: as §1, §5, §6
# [7] = test system: MDA-MB435 breast carcinoma cells; test: Adhesion assay (attachment on coated ECM substrata); type: cell-based, human
# Description: as §3, §4
# CHO-K1 cells [8] = test: as above; type: cell-based, Chinese hamster; details: CHO-K1, 20 h adhesion, ITS
# Description: as §3, §4
# (§7) The inventors tested whether expression of integrins capable of binding to fibronectin influences tenascin-C-induced compromised attachment on fibronectin. CHO-K1 cells (which express moderate levels of α5β1 (Bauer, J. S. et al (1992) J Cell Biol 116: 477-487)) were compared for levels of adhesion on fibronectin and other ECM substrates with that of cells that either express essentially no fibronectin binding integrins (CHO-B2), or overexpress α5β1 (CHO-B2α27) and αvβ1 (CHO-B2v7), respectively (Schreiner, C. et al (1991) Cancer Res 51: 1738-1740).
# CHO-B2α27 cells [9] = test: as above; type: cell-based, Chinese hamster; details: CHO-B2α27, 20 h adhesion, ITS
# Description: as §3, §4, §7
# CHO-B2 cells [10] = test: as above; type: cell-based, Chinese hamster; details: CHO-B2, 20 h adhesion, ITS
# Description: as §3, §4, §7
# tumour cell lines = test: Adhesion assay on tumour cell lines; type: cell-based
# Description: as §3
# as §4, with “camera. […]” for “camera.”
substance,measurement,setting,value
"TN: Full length chicken tenascin-C TN260, recombinant, expressed in HEK-293 cells, used as coated substratum",DNA replication by 3H-thymidine incorporation,CHO-K1 cells [1],5.9 +/− 1.7 relative increase in cpm over cells plated on fibronectin
same,DNA replication by 3H-thymidine incorporation,CHO-B2α27 cells [2],11 +/− 3.9 relative increase in cpm over cells plated on fibronectin
same,DNA replication by 3H-thymidine incorporation,CHO-B2 cells [3],7.1 +/− 0.2 relative increase in cpm over cells plated on fibronectin
same,DNA replication indices increase on pure tenascin-C,all cell lines tested,≤ 11 fold
same,numbers of attached cells,"T98G glioblastoma cells [4]; 1 h attachment, serum free medium",9.3 +/− 0.9 % of cells attached on fibronectin
same,numbers of attached cells,"T98G glioblastoma cells [4]; 20 h adhesion, 40 ng/ml PDGF-BB",14.6 +/− 0.4 % of cells attached on fibronectin
same,DNA replication by 3H-thymidine incorporation,[5],2.7 +/− 0.6 relative increase in cpm over cells plated on fibronectin
same,DNA replication by 3H-thymidine incorporation,T98G glioblastoma cells [6],3.0 +/− 0.9 relative increase in cpm over cells plated on fibronectin
same,numbers of attached cells,"[7]; MDA MB 435, 1 h attachment, serum free medium",8.2 +/− 3.9 % of cells attached on fibronectin
same,numbers of attached cells,"[7]; MDA MB 435, 20 h adhesion, 100 ng/ml insulin",4.0 +/− 0.2 % of cells attached on fibronectin
same,numbers of attached cells,CHO-K1 cells [8],4.7 +/− 0.2 % of cells attached on fibronectin
same,numbers of attached cells,CHO-B2α27 cells [9],4.3 +/− 0.7 % of cells attached on fibronectin
same,numbers of attached cells,CHO-B2 cells [10],8.0 +/− 2.9 % of cells attached on fibronectin
same,cells attached on tenascin-C,"tumour cell lines; 1 h after plating, all cell lines tested",less than 10%
same,blocking of cell attachment on fibronectin,tumour cell lines; molar ratio of tenascin-C to fibronectin of 1:8,blocked cell attachment on fibronectin as efficiently as in an equimolar ratio
